According to patent US12606508B2, “Cannabis extracts and uses thereof” (priority 2020, dated 2026):

Columns and labels:
human CB2 receptor = molecular target: T1, human CB2 receptor (Homo sapiens, UniProt P34972); settings: cited from earlier work
T1 construct: Eurofins Discovery (contract assay)

CD-1 mice = test: Formalin test in mice; format: in vivo; settings: AM251 0.5 mg/kg i.p. or AM630 1 mg/kg i.p., 10 min before Δ^9-THCB 3 mg/kg i.p.
Method: Formalin test in mice. Male CD-1 mice 6-8 weeks (Envigo, Italy), were housed under controlled conditions (12 h light/12 h dark cycle; temperature 20-22 C; humidity 55-60%) with chow and tap water available ad libitum. All surgeries and experimental procedures were approved by the Animal Ethics Committee of University of Campania “L. Vanvitelli” (Naples). Animal care was in compliance with Italian (D.L. 116/92) and European Commission (O.J. of E.C. L358/1 18/12/86) regulations on the protection of laboratory animals. All efforts were made to minimize animal suffering and to reduce the number of animals used. All the experiments were performed in a randomized manner by the same operator blind to pharmacological treatments. Mice weighing 28-32 g were used after 1 week-acclimation period and received formalin (1.25% in saline, 30 μL) in the dorsal surface of one side of the hind-paw. Each mouse, randomly assigned to one of the experimental groups (n=5), was placed in a plexiglass cage and allowed to move freely for 15-20 min. A mirror was placed at a 45° angle under the cage to allow full view of the hind-paws. Lifting, favoring, licking, shaking and flinching of the injected paw were recorded as nocifensive behavior.^61 The total time of the nociceptive response was measured every 5 min for 60 minutes and expressed in min (mean±SEM). Mice received vehicle (0.5% DMSO in saline) or different doses of Δ^9-THCB (2, 3 and 5 mg/kg, i.p.) 20 min before formalin injection alone or in combination with AM251 (0.5 mg/kg, i.p.) or AM630 (1 mg/kg, i.p.). The antagonists were administered 10 min before drugs injection.
Statistics for in vivo experiments. Data are represented as means±standard error of the mean (S.E.M). Statistical analysis of the data was performed by analysis of variance two-way ANOVA followed by Bonferroni post hoc or Dunnett's multiple comparison test. All statistical analyses were performed by using GraphPAD software (San Diego, California). Differences were considered significant at p<0.05.

human CB1 receptor = molecular target: T2, human CB1 receptor (Homo sapiens, UniProt P21554); settings: literature values used for comparison; read-out: Ki against CB1 receptor reported in the literature; cited from earlier work
T2 construct: Eurofins Discovery (contract assay)
T2 sequence (P21554 whole entry): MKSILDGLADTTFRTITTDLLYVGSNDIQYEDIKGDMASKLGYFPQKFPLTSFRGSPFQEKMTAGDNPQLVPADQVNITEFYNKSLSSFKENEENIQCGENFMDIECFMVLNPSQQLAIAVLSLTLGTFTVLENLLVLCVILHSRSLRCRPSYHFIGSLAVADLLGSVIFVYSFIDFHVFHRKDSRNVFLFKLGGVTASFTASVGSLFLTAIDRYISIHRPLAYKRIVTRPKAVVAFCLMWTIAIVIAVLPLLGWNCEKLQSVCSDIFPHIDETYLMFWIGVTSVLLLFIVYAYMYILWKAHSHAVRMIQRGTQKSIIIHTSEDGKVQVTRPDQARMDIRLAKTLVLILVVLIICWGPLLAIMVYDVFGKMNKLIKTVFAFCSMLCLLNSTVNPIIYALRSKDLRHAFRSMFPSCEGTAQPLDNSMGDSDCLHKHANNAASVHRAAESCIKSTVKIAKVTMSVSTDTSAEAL

T1 sequence (P34972 whole entry): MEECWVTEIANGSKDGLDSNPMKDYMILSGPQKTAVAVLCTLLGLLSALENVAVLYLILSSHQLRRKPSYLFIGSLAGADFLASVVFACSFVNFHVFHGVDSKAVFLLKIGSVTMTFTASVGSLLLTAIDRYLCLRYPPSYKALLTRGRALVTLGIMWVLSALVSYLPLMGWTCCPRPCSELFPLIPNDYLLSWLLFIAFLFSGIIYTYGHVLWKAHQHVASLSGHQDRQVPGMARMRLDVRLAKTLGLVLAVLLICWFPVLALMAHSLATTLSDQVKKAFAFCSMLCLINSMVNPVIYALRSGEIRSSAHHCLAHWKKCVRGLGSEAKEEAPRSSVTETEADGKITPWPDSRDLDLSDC

SMILES	effect of antagonist pre-treatment on Δ^9-THCB analgesia in formalin test (CD-1 mice)	Ki (human CB1 receptor)	also measured
C=C(C)[C@@H]1CCC(C)=C[C@H]1c1c(O)cc(CCCCC)cc1O [CBD, cannabidiol]			affinity to CB2 receptor (in words, literature) (human CB2 receptor): poor affinity
COc1ccc(C(=O)c2c(C)n(CCN3CCOCC3)c3cc(I)ccc23)cc1 [AM630]	prevented the analgesic effects induced by Δ^9-THCB		
Cc1c(C(=O)NN2CCCCC2)nn(-c2ccc(Cl)cc2Cl)c1-c1ccc(I)cc1 [AM251]	prevented the analgesic effects induced by Δ^9-THCB		
CCCc1cc(O)c2c(c1)OC(C)(C)[C@@H]1CCC(C)=C[C@@H]21 [Δ^9-THCV, Δ^9-tetrahydrocannabivarin]		75.4 nM	
CC1=CC[C@@H]2[C@@H](C1)c1c(O)cc(C(C)(C)CCCCCCBr)cc1OC2(C)C [AM11542]		0.11 nM	
